Laboratory results from patent publication US20060281901A1, “Method for the production of amyloid-beta peptide using ubiquitin” (priority 2005, published 2006).

Legend:
[1] = tested on: Human neuroblastoma SH-SY5Y cell line; assay: MTT assay of cell activity (mitochondria dehydrogenase activity); assay type: cell-based; settings: for degree of suppression of the cell activity by concentration (MTT): SH-SY5Y cells, 1, 2 or 4 μM, 24 hrs, FIG. 4A
Procedure: To compare the physiological activity of the genetic recombinant amyloid-β peptide produced according to the present invention with that of the amyloid-β peptide produced by a chemical synthetic method, their mitochondrial activities in eykaryotic cells were examined as follows:
First, 0.45 mg of the amyloid-β peptide prepared in Example 3 was dissolved in 20 μl of dimethyl sulfoxide, and 980 μl of DMEM was added thereto, to prepare the amyloid-β peptide solution at a concentration of 100 μM, which was stored at 4[…] for 24 hrs and subjected to centrifugation to separate the supernatant from the precipitate. The supernatant was distributed to an eppendorf tube at a volume of 50 μl and stored at −80[…].
(§1) Human neuroblastoma SH-SY5Y cell line (ATCC CRL-2266) was suspended in DMEM containing 10% FBS, distributed to each well of a 96-well plate at a concentration of 7×10^3 cells/well, and then, cultured at 37 °C for 24 hrs. The genetic recombinant amyloid-β peptide solution prepared above was added to each well at a concentration of 1, 2 or 4 μM, and the well plate was incubated at 37 °C for 24 hrs. The cell activity was measured by means of MTT (3-(4,5-dimethylthiazol-2-yl)-2,5-diphenyltetrazolium bromide) assay which is capable of measuring the in vivo mitochondria dehydrogenase activity. MTT was added to each well at a concentration of 0.8 mg/ml, and the reactants in the well were allowed to react at 37 °C for 5 hrs to induce in vivo dehydrogenase reaction of mitochondria. Formazan crystals generated from such reaction were dissolved in dimethyl sulfoxide and its adsorbance was measured at 550 nm.
Also shown in FIG. [[4a]]4A are the results obtained using the recombinant ubiquitin (H6Ub: ●) control, the ubiquitin-amyloid-β peptide fusion protein (H6Ub-Aβ42: ▪) and the chemically synthesized amyloid-β peptide (Aβ42: □).

[2] = tested on: Human neuroblastoma SH-SY5Y cell line; assay: level of apoptosis by trypan blue staining; assay type: cell-based; settings: 5 μM, 36 hrs, FIG. 4C
Procedure: as §1
After the cells were treated with 5 μM of the amyloid-β peptide for 36 hrs, black cells stained with trypan blue were examined to determine the level of apoptosis induced.

[3] = listed as recombinant amyloid-β peptide

rAβ42: genetic recombinant amyloid-β peptide (amyloid-beta42, SEQ ID NO: 19) cleaved from a ubiquitin fusion protein expressed in E. coli
changes in the cell activity according to the treatment time (MTT) ([1]; SH-SY5Y cells, 5 μM, 12, 24 and 48 hrs, FIG. 4B): as the treatment time becomes longer, the cell activity becomes further reduced
degree of suppression of the cell activity by concentration (MTT) [1]: can suppress the cell activity just like the chemically synthesized amyloid-β peptide
degree of suppression of the cell activity by concentration (MTT) [1, 3]: can suppress the cell activity
level of apoptosis induced (trypan blue staining) [2]: showed an apoptotic activity, which was significantly higher than the recombinant ubiquitin (H6Ub) or ubiquitin-amyloid fusion protein (H6Ub-Aβ42), the activity being equal to, or slightly higher than, the chemically synthesized amyloid-β peptide (Aβ42)
level of apoptosis induced (trypan blue staining) [2, 3]: induce apoptosis to an extent which is equal to that achievable with chemically synthesized amyloid-β peptide
